Test results published in PMC12817916, “A small-molecule HSP90 inhibitor, NVP-HSP990, alleviates rotavirus infection” (Journal of Virology, 2025).

Assays:
HT-29 cells = experiment: Cytotoxicity assay (CCK-8); assay type: cell-based, Human; details: HT-29 cells, 24 h, CCK-8; read-out: CC50
Procedure: (§1) To evaluate the cytotoxicity of different HSP90 inhibitors in vitro, 10,000 MA104 cells, 30,000 Caco-2 cells, and 80,000 HT-29 cells in 100 µL complete DMEM medium were seeded in 96-well plates and cultured at 37°C and 5% CO2 for 24 h to reach about 100% confluence, and a cell-free control was also set. After removing the initial medium, 100 µL of complete DMEM medium containing the indicated concentrations of drugs was added to each well, and the plates were incubated at 37°C and 5% CO2. Twenty-four hours later, the drug-containing medium was replaced with 100 µL fresh complete DMEM medium plus 10 µL 5 mM CCK-8 reagent (Beyotime, China), and OD450 absorbance of each well was detected 3 h later using a microplate reader (Gene Company Limited, China). Relative cell viability rate = OD450 (drug-treated cells − cell-free control) / OD450 (0 µM drug-treated cells − cell-free control).
(§2) The 50% cytotoxic concentration (CC50) values were determined by nonlinear regression (curve fit) analysis in GraphPad Prism 9.0 (GraphPad Software). Dose-response data (drug concentrations as X-axis and normalized cell viability percentages as Y-axis) were fitted to a Dose-response Inhibition model ("[Inhibitor] vs. normalized response-Variable slope"). The curve was constrained to a bottom limit of 0% viability. The CC50 value was automatically calculated as the X-intercept at Y=50%. Model adequacy was validated using goodness-of-fit metrics (R²≥0.95), 95% confidence intervals, and residual distribution analysis. Final CC50 values were derived from three independent biological replicates and reported as mean ± SEM.

Caco-2 cells = experiment: Cytotoxicity assay (CCK-8); assay type: cell-based, Human; details: Caco-2 cells, 24 h, CCK-8; read-out: CC50
Procedure: as §1, §2

RV SA11 strain = experiment: RV SA11 diarrhea model in suckling mice; assay type: in vivo, BALB/c suckling mice; details: for infectious RV particles and viral antigens in intestinal contents, transcription of RV VP6 in intestinal epithelial cells: compared to controls
Procedure: BALB/c mice were purchased from Gempharmatech Inc. (Suzhou, China) and housed under SPF conditions (22 ± 1°C, 12 h light/dark cycle). Suckling mice were obtained by mating male and female adult BALB/c mice (12- to 16-week-old). Only the 7-day-old BALB/c suckling mice with body weights ranging from 2.5 g to 4.5 g were selected for RV diarrhea models. For induction of RV diarrhea, 1 × 10^6 PFU of SA11 strain or 10 × DD50 of EDIM strain in 20 µL PBS was orally inoculated using a pipette tip to 7-day-old BALB/c suckling mice regardless of their sexes, as sex has no significant influence on RV diarrhea occurrence. We used a scoring system to evaluate fecal consistency and color as described with some modification ([27]): no stool or brown formed stool (1 point); brown soft stool (2 points); yellow soft stool (3 points); and yellow watery stool (4 points). Mice with scores of ≥2 meant diarrhea occurrence, while mice with scores of 1 meant no diarrhea. At the end of each experiment, all infected or drug-treated suckling mice were humanely euthanized via CO2 asphyxiation.
Seven-day-old BALB/c suckling mice meeting the weight criteria within each litter were randomly assigned to experimental groups. Each litter was allocated to ensure one to three suckling mice per experimental group (variations dependent on the total number of groups). Data from suckling mice assigned to the same group across multiple litters were aggregated to achieve a total sample size of n = 3–6 per experimental group. Then, the suckling mice were orally inoculated with 1 × 10^6 PFU of the SA11 strain or 10 × DD50 of the EDIM strain, or with an equal amount of PBS as mock infection. For SA11 infection, the suckling mice were orally treated once with indicated doses of drugs or with an equal volume of DMSO as control at 2 h p.i. For EDIM infection, the suckling mice were orally treated with 0.2 mg/kg/day NVP-HSP990, 30 mg/kg/day ribavirin, or an equal amount of DMSO as control from 2 days post-infection (d p.i.) to indicated time points. Diarrhea scores and body weight were monitored from day 0 to day 7 post-infection in the SA11 infection model, and from day 0 to day 9 post-diarrhea occurrence (2–11 d p.i.) in the EDIM infection model. Blinding was applied throughout data collection and analysis.
The RV-infected suckling mice were sacrificed by CO2 asphyxiation at the indicated times, and small intestines (including duodenum, jejunum, and ileum) or colon was homogenized in 0.3 mL DMEM, centrifuged at 12,000 × g for 5 min at 4°C, and the supernatant was collected. Virus contents in the supernatant were titrated with PFA as described above. Viral antigens in the supernatant were detected with enzyme-linked immunosorbent assay (ELISA) kits for RV (CUSABIO, China) following the manufacturer’s instructions. For qPCR analysis of RV protein expression, the intestines were longitudinally split and washed in 1 mL DMEM by shaking for 30 s. Then, the tissues were cut into 0.5 cm segments, incubated in Hank’s buffer containing 2.5 mM EDTA-Na2 and 1 mM dithiothreitol (Sangon Biotech, China) at 37°C with rotation at 200 rpm for 30 min, filtered with a 70 µm strainer. Then the epithelial cells were pelleted by centrifugation at 500 × g for 5 min, purified with 20% Percoll (Cytiva, Sweden), and lysed in Trizol for RNA extraction and further qPCR analysis.
The jejunum and ileum of suckling mice were fixed in 4% paraformaldehyde for 24 h, washed with PBS twice, and then subjected to paraffin embedding and slicing at 5 µm thickness. The sections were stained with hematoxylin and eosin (Beyotime, China) and observed with an Olympus BX51 microscope, and the data were processed by CaseViewer 2.4 software. For immunohistochemistry analysis, the fixed tissues were dehydrated in 30% sucrose, embedded in Optimal Cutting Temperature compound, frozen with liquid nitrogen, and cryosliced at 10 µm thickness. […]

[1] = 1 mg/kg oral, once, 0 to 7 days post-infection
[2] = oral, once at 2 h p.i., 24 h p.i., 1 × 10^6 PFU SA11

Structure (SMILES): COc1cccc(-c2cc(F)ccc2[C@H]2Cc3nc(N)nc(C)c3C(=O)N2)n1 [NVP-HSP990]
- CC50 (HT-29 cells): > 100 µM
- CC50 (Caco-2 cells): > 100 µM
- body growth of RV-infected suckling mice (RV SA11 strain; [1]): did not hinder
- diarrhea of RV-infected suckling mice (RV SA11 strain; [1]): significantly alleviated
- RV-induced foamy degeneration in the ileal epithelium (RV SA11 strain; SA11-infected mice, 1 mg/kg oral, 16 h p.i., hematoxylin/eosin): markedly attenuated
- infectious RV particles and viral antigens in intestinal contents, transcription of RV VP6 in intestinal epithelial cells (RV SA11 strain; duodenum, 1 mg/kg oral, 16 h p.i.): no significant differences
- infectious RV particles and viral antigens in intestinal contents, transcription of RV VP6 in intestinal epithelial cells (RV SA11 strain; jejunum and ileum, 1 mg/kg oral, 16 h p.i.): remarkably reduced
- pathological changes in the ileum (RV SA11 strain; mock-infected mice, NVP-HSP990 treatment alone, 1 mg/kg oral, hematoxylin/eosin): no appreciable pathological changes
- ED50 for RV diarrhea occurrence (RV SA11 strain; [2]): 142.3 µg/kg
- ED50 for diarrhea score reduction (RV SA11 strain; [2]): 135.5 µg/kg
